# Values of other authors as cited in patent publication US20250101002A1, “DEUTERATED INFIGRATINIB COMPOUNDS” (QED Therapeutics, Inc., priority 2023, published 2025).
# Structures can show the parent of a compound that is named as a salt.
# Conditions: cholangiocarcinoma indication
smiles,measurement,setting,value
"CCN1CCN(c2ccc(Nc3cc(N(C)C(=O)Nc4c(Cl)c(OC)cc(OC)c4Cl)ncn3)cc2)CC1 [infigratinib monophosphate, Monophosphate Salt Form A of 3-(2,6-dichloro-3,5-dimethoxy-phenyl)-1-{6-4-(4-ethyl-piperazin-1-yl)-phenylaminol-pyrimidin-4-yl}-1-methyl-urea]",common adverse reactions,infigratinib monophosphate dosed at 125 mg,"nail toxicity, stomatitis, dry eye, fatigue, alopecia, palmar-plantar erythrodyesthesia syndrome, arthralgia, dysgeusia, constipation, abdominal pain, dry mouth, eyelash changes, diarrhea, dry skin, decreased appetite, blurred vision, and vomiting"
same,additional adverse reactions observed in corresponding clinical trials,infigratinib monophosphate,"ocular toxicity, hyperphosphatemia and soft tissue mineralization, infections, anemia, pyrexia, abdominal pain, hypercalcemia, and sepsis"
